The values below come from PMC9674851, “Biological effects of the loss of homochirality in a multicellular organism” (Nature Communications, 2022).

Numbered stars: 1 amine (or outer) side, 2 acyl side, 3 side chain; on linkers, the order of the positions; unused ones are H or OH. Square brackets hold non-standard residues; d marks the D form. Peptide text beside a SMILES is read from it. * marks the point of attachment. βAsp = O=C(O)[C@H](CC(=O)[*:2])N[*:1]; AMC = Cc1cc(=O)oc2cc(N*)ccc12

On the set-up of data set [1]: method as in earlier work. The settings on record: ref http://www.ilo.org/dyn/icsc/showcard.display?p_version=2&p_card_id=1439; cited from earlier work.
The target of data set [2] is T1, purified recombinant human Pimt (Homo sapiens, UniProt P22061).
T1 construct: purchased Gentaur MBS144034
T1 sequence (P22061 whole entry): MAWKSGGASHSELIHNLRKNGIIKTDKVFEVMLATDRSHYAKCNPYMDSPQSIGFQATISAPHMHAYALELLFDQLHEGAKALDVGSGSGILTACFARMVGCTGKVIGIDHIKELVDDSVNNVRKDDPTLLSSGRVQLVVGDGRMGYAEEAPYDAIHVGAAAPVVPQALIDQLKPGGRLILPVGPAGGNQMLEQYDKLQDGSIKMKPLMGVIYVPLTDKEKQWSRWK
Description: Pimt colorimetric continuous enzyme coupled assay (SAM methyltransferase colorimetric assay). The class given is biochemical. Particulars: Pimt 1 µM, substrate 100 µM, 37 °C. Here is the method:
SAM Methyltransferase colorimetric assay (Merck) was used to measure the activity of purified recombinant human Pimt (EC 2.1.1.77, MBS144034, Gentaur) on different target substrates at 37 °C. Pimt (1 µM final concentration) enzymatic activity was followed spectrophotometrically by the increase in absorbance at 510 nm using DeNovix DS-11 Series microvolume Spectrophotometer/Fluorometer. Assay was performed on different homo- and heterochiral synthetic substrates Ac-[…]-amide (Peptide 1), Ac-KRKGDEV-(iso-L-Asp)-GVDEVAK-amide (Peptide 2) (both of which HPLC purity is >90%), at 100 µM final concentration. The peptide’s sequence is identical and correspond to the PARP1 fragment which is cleaved by Dcp-1 in the in vivo cleavage assay.

Data set [3] has as its target T2, recombinant human active Caspase-3 (Homo sapiens, UniProt P42574).
T2 construct: Assay was performed with recombinant human active Caspase-3 (556471, BD Biosciences); purchased BD Biosciences 556471
T2 sequence (P42574 29-175 limits assumed): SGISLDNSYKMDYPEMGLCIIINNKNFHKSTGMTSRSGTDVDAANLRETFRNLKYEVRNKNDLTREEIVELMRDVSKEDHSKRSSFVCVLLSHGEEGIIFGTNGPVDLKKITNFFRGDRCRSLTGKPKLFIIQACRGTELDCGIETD
T2 sequence (P42574 176-277 limits assumed): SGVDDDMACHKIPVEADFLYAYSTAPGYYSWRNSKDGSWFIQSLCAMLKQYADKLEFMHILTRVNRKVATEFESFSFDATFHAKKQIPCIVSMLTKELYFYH
Description: ChiCAS: chiral-selective in vitro DEVD-ase assay. The class given is biochemical. The settings on record: for caspase-3 activity: substrate 20 µM in HEPES assay buffer with 10 mM DTT, fluorescence at 460 nm; for cleavage by Caspase-3 (in words): recombinant human Caspase-3, fluorogenic AMC substrates. Here is the method: The following homochiral and heterochiral fluorogenic substrates were chemically synthesised: Ac-DEV-(L-aspartate)-AMC (positive control), Ac-DEV-(iso-L-aspartate)-AMC, Ac-DEV-(D-aspartate)-AMC, Ac-DEV-(iso-D-aspartate)-AMC, Ac-DEVG-AMC and Ac-DEV-(L-alanine)-AMC (negative control) and […] (custom peptide synthesis by GenScript). All synthetic peptides were dissolved in DMSO and stored at -80 °C. Reactions were performed as described below. Ac-DEVx-AMC substrates were used in a final concentration of 20 μM in assay buffer (50 mM HEPES, 100 mM NaCl, 0,1% CHAPS, 1 mM EDTA, 10% Glycerol, 10 mM DTT - immediately added before use). Assay was performed with recombinant human active Caspase-3 (556471, BD Biosciences). Reactions were performed in 96 well microplates (100 μl/reaction) and caspase activity was monitored spectrophotometrically by the increase in fluorescence at 460 nm using Synergy 4 BioTek fluorescence absorbance microplate reader and Gen5 program.

In the case of `N[C@@H](CC(=O)O)C(=O)O` [AsparticAcid], in data set [1], the “Octanol/water partition coefficient as log Pow” value was -3.89.
For the compound `CC(=O)N[C@@H](CCCCN)C(=O)N[C@@H](CCCNC(=N)N)C(=O)N[C@@H](CCCCN)C(=O)NCC(=O)N[C@@H](CC(=O)O)C(=O)N[C@@H](CCC(=O)O)C(=O)N[C@H](C(=O)N[C@@H](CC(=O)NCC(=O)N[C@H](C(=O)N[C@@H](CC(=O)O)C(=O)N[C@@H](CCC(=O)O)C(=O)N[C@H](C(=O)N[C@@H](C)C(=O)N[C@@H](CCCCN)C(N)=O)C(C)C)C(C)C)C(=O)O)C(C)C` [Peptide 2] (Ac-KRKGDEV[βAsp]GVDEVAK-NH2), the “Pimt enzymatic activity (in words)” value in data set [2] was “active Pimt enzymatic activity”.
With `CC(=O)N[C@@H](CCCCN)C(=O)N[C@@H](CCCNC(=N)N)C(=O)N[C@@H](CCCCN)C(=O)NCC(=O)N[C@@H](CC(=O)O)C(=O)N[C@@H](CCC(=O)O)C(=O)N[C@H](C(=O)N[C@@H](CC(=O)O)C(=O)NCC(=O)N[C@H](C(=O)N[C@@H](CC(=O)O)C(=O)N[C@@H](CCC(=O)O)C(=O)N[C@H](C(=O)N[C@@H](C)C(=O)N[C@@H](CCCCN)C(N)=O)C(C)C)C(C)C)C(C)C` [Peptide 1] (Ac-KRKGDEVDGVDEVAK-NH2), in data set [2], the “Pimt enzymatic activity (in words)” value is given as “no enzymatic activity was detected”.
Regarding `CC(=O)N[C@@H](CC(=O)O)C(=O)N[C@@H](CCC(=O)O)C(=O)N[C@H](C(=O)N[C@@H](C)C(=O)Nc1ccc2c(C)cc(=O)oc2c1)C(C)C` [Ac-DEVA-AMC, acetyl-DEVA-7-amido-4-methylcoumarin] (Ac-DEVA-{AMC}), the caspase-3 activity in data set [3] (experiment 1) came out at 396 R.F.U; in data set [3] (experiment 2), 61 R.F.U; in data set [3] (experiment 3), 164 R.F.U. For the same compound, the “cleavage by Caspase-3 (in words)” value in data set [3] was “non-cleavable”.
For `CC(=O)N[C@@H](CC(=O)O)C(=O)N[C@@H](CCC(=O)O)C(=O)N[C@H](C(=O)NCC(=O)Nc1ccc2c(C)cc(=O)oc2c1)C(C)C` [Ac-DEVG-AMC, acetyl-DEVG-7-amido-4-methylcoumarin] (Ac-DEVG-{AMC}) the same measures were 650 R.F.U, 558 R.F.U, 613 R.F.U and “non-cleavable”.
